According to a melting point compilation (Tetko et al.; mined from patent text by program, amines drawn as free bases though some values may be those of a salt):

Q: Which melting point does the source give for `O=C(NCc1ccn(-c2cc3nc(C(=O)O)c(=O)[nH]c3cc2C(F)(F)F)c1)Nc1cccc(C(=O)O)c1` here?
A: 300 °C

Q: With `CN1C(=O)N(CCC(NS(=O)(=O)c2ccc(-c3ccc(Cl)cc3)cc2)C(=O)O)C(=O)C1(C)C` (centres undefined) as the molecule, how does the melting point read?
A: 43 °C

Q: Which melting point does the source give for `CS(=O)(=O)c1ccc(-c2cn(-c3ccccc3)nc2C(=O)O)cc1` here?
A: 207 to 208 °C

Q: With `C#CCNC(=O)N1c2ccccc2-c2noc3c2C1CCC3` (centres undefined) as the molecule, how does the melting point read?
A: 220 °C

Q: With `CCc1cc(CC)c2sc3ccccc3c(=O)c2c1` as the molecule, how does the melting point read?
A: 60 °C

Q: Which melting point does the source give for `Cc1c(Br)c(NC(=O)CC(C)(C)C)c(C)c2c1OCC2c1ccc(C(C)C)cc1` (centres undefined) here?
A: 174 to 175 °C

Q: With `COc1ccc(C=Cc2cc(OC)cc(OC)c2)cc1` as the molecule, how does the melting point read?
A: 55 to 56 °C

Q: For `ON=C1CCC(C2CCCC2)=C1c1cccc(O)c1`, which melting point is on record?
A: 207 to 209 °C

Q: With `CCOCC(=O)Nc1cccc(NC)c1C#N` as the molecule, how does the melting point read?
A: 133 to 134 °C

Q: Which melting point does the source give for `CCOC(=O)c1c[nH]cc1-c1ccc(Cl)cc1` here?
A: 137 to 138 °C

Q: Which melting point does the source give for `CCOC(=O)c1c(O)nsc1C` here?
A: 69 °C

Q: Which melting point does the source give for `COc1ccc(NC(=N)c2ccc(SC)cc2)cc1` here?
A: 166 to 168 °C

Q: For `CC(C)c1cc(-c2ccc3c(c2)OCO3)nc(Cl)c1C#N`, which melting point is on record?
A: 171 to 173 °C

Q: For `CCC(CC)Nc1c(C)cnc(Oc2c(C)cc(Cl)cc2C)c1N`, which melting point is on record?
A: 72 to 74 °C

Q: For `COc1ccc(-c2[nH]nc(C(=O)Oc3ccccc3)c2N)cc1`, which melting point is on record?
A: 286 to 291 °C

Q: Which melting point does the source give for `Fc1ccc(Nc2ncnc3cnc(NC4CCCNC4)nc23)cc1Cl` (centres undefined) here?
A: 194 to 199 °C

Q: With `CNc1nnc(-c2ccc3occ(-c4ccccc4Cl)c3c2)o1` as the molecule, how does the melting point read?
A: 205 to 206 °C

Q: Which melting point does the source give for `C[C@]12CCC(=O)N[C@@H]1CCc1cc(-c3cccc4ccccc34)ccc12` here?
A: 247 to 248 °C

Q: With `O=C(Nc1ccc(F)cc1F)c1nc(Cl)c(Cl)[nH]1` as the molecule, how does the melting point read?
A: 290 °C

Q: With `COc1ccc2c(c1)c(CC(=O)N(O)C1CCCCC1)c(C)n2C(=O)c1ccc(Cl)cc1` as the molecule, how does the melting point read?
A: 208 to 210 °C

Q: For `O=S(=O)(Cc1ccc(O)cc1)Cc1ccc(O)cc1`, which melting point is on record?
A: 92 °C

Q: For `O=C1c2cccc3cccc(c23)C(=O)N1C1OC(CO)C(O)C(O)C1O` (centres undefined), which melting point is on record?
A: 285 to 286 °C

Q: With `OCCCSC(=S)Nc1ccccn1` as the molecule, how does the melting point read?
A: 93 °C

Q: With `CCOC(=O)C(=O)Nc1ccc2c(c1)-n1cc(C(=O)OC)nc1CO2` as the molecule, how does the melting point read?
A: 186 to 188 °C

Q: For `Cc1c(CC(=O)O)c2cc(OCc3ccc4ccccc4n3)ccc2n1Cc1ccc(C(=O)O)cc1`, which melting point is on record?
A: 232 to 234 °C

Q: For `COc1nnc2c(=O)c3ccccc3ccn12`, which melting point is on record?
A: 149 to 150 °C

Q: With `Brc1nc(-c2ccccc2)nc2ccccc12` as the molecule, how does the melting point read?
A: 132 °C

Q: For `COC(=O)c1nn(Cc2cccc(O)c2)c2c1CCc1cc(OCc3cncnc3)ccc1-2`, which melting point is on record?
A: 218 to 222 °C

Q: Which melting point does the source give for `CC(C)c1nn(-c2ccccc2)c(-c2ccc(F)cc2)c1CCC=O` here?
A: 86 to 88 °C

Q: Which melting point does the source give for `CC(=O)OCc1c2ccccc2cc2ccccc12` here?
A: 110 to 112 °C

Q: With `CCOC(=O)c1cnc2c(C)csc2c1Cl` as the molecule, how does the melting point read?
A: 113 to 115 °C

Q: Which melting point does the source give for `COc1ccc2c(c1)CC1=C2NN(C(=O)OC(C)(C)C)C1c1cccs1` (centres undefined) here?
A: 163 to 165 °C

Q: Which melting point does the source give for `NC(=O)N1C(=O)C(=C(OC(=O)c2ccc(C(=O)OCc3ccccc3)cc2)c2cccs2)c2cc(F)c(Cl)cc21` here?
A: 212 to 218 °C

Q: With `CCCCCCCNC(=O)Nc1ccc(C(C)C)cc1C(=O)NCC1CCN(C(c2ccccc2)c2ccccc2)CC1` as the molecule, how does the melting point read?
A: 179 to 180 °C

Q: Which melting point does the source give for `Clc1ncccc1-c1ncoc1-c1cccnc1Cl` here?
A: 157 to 158 °C

Q: Which melting point does the source give for `Cc1ccc(S(=O)(=O)N2Cc3c(C)sc(C)c3C2)cc1` here?
A: 163 to 164 °C

Q: For `O=c1cc(CCN2CCC(c3c[nH]c4ccccc34)CC2)c2cc([N+](=O)[O-])ccc2[nH]1`, which melting point is on record?
A: 251 to 253 °C

Q: For `COc1ccc(C=CC(=O)c2cccc(OC)c2OC)cc1Oc1ccccc1`, which melting point is on record?
A: 63.3 to 64 °C

Q: With `CCCCCCCCOc1ccc(C(=O)Oc2cc(Cl)c(Cl)cc2Cl)cc1` as the molecule, how does the melting point read?
A: 53 °C

Q: With `CC(C)(C)[Si](C)(C)O[Si](C)(C)C(C)(C)C` as the molecule, how does the melting point read?
A: 94 to 95 °C

Q: With `CNC(=O)c1cc(-c2ccc(OC)cc2)nn(C(C)C)c1=O` as the molecule, how does the melting point read?
A: 154 °C

Q: For `Cc1nc2ncnn2c(O)c1CCCOCC(C)(C)C`, which melting point is on record?
A: 155 to 159 °C

Q: With `c1ccc(-c2nc(COc3ccc(CCCCn4ccnc4)cc3)co2)cc1` as the molecule, how does the melting point read?
A: 113 to 114 °C

Q: Which melting point does the source give for `Cc1nc(-c2cccc(C(=O)N[C@H]3CC[C@H](CCN4CCN(c5nccc6c5OCC6)CC4)CC3)c2)no1` here?
A: 228 °C

Q: Which melting point does the source give for `O=C1c2ccc(NC(=O)C3CC3)cc2C(=O)c2cc(NC(=O)C3CC3)ccc21` here?
A: 352 °C

Q: With `O=C1c2c(O)cc(O)cc2OC(c2ccc(O)cc2)C1O` (centres undefined) as the molecule, how does the melting point read?
A: 221 to 223 °C

Q: With `CC(C)c1nc(-n2cnc3ccccc32)sc1/C=C/C(=O)O` as the molecule, how does the melting point read?
A: 262 to 264 °C

Q: For `CCOC(=O)N1CCC(=NO)c2cc(F)ccc21`, which melting point is on record?
A: 122 to 124 °C

Q: With `O=C(O)CCC(=NOCc1ccc(OCc2ccc3ccccc3n2)cc1)c1ccccc1` as the molecule, how does the melting point read?
A: 133 to 134 °C

Q: With `C[C@H](NC(=O)OC(C)(C)C)c1nc2c(C(F)(F)F)cccc2c(=O)o1` as the molecule, how does the melting point read?
A: 174 °C

Q: With `Cn1c(C(F)(F)F)ccc(-c2c(F)cc(Cl)c3oc(CO)cc23)c1=O` as the molecule, how does the melting point read?
A: 145 to 147 °C

Q: Which melting point does the source give for `CN(C)S(=O)(=O)c1cc2[nH]c(=O)c(=O)[nH]c2cc1[N+](=O)[O-]` here?
A: 318 to 332 °C

Q: For `CCc1cccc(C2(O)C3CC4CC(C3)CC2C4)c1` (centres undefined), which melting point is on record?
A: 63 to 65 °C

Q: With `Nc1c(C(=O)O)cnn1-c1ccc(Cl)cc1` as the molecule, how does the melting point read?
A: 169 to 171 °C

Q: With `CCNC(=O)N1N=C(c2ccc(N)cc2)c2cc(Cl)ccc2CC1C` (centres undefined) as the molecule, how does the melting point read?
A: 165 to 167 °C

Q: Which melting point does the source give for `CCOC(=O)c1cnn2c1nc(NC)c1cnc3c(cnn3CC)c12` here?
A: 321 to 322 °C

Q: For `CCOC(=O)C1CCc2c(n(C(C)=O)c3ccc(Cl)cc23)C1` (centres undefined), which melting point is on record?
A: 95 to 96 °C

Q: For `CN1CCN(c2cccc3c2CC[C@@H](N)C3)CC1`, which melting point is on record?
A: 98 to 99 °C

Q: With `COc1ccc(CCc2ccncc2NC(=O)NCc2ccccc2)cc1OC1CCCC1` as the molecule, how does the melting point read?
A: 152 to 154 °C

Q: Which melting point does the source give for `Nc1ncc(CN2CCN(c3cccc(Cl)c3)CC2)c(N)n1` here?
A: 222 to 226 °C

Q: With `CCOC(=N)C(O)c1sccc1C` (centres undefined) as the molecule, how does the melting point read?
A: 73 to 76 °C

Q: With `Fc1ccc(Oc2cnc3c(-c4ccccc4Cl)n[nH]c3n2)c(F)c1` as the molecule, how does the melting point read?
A: 240 to 242 °C

Q: For `Cn1cc(-c2nc3c(N[C@H]4[C@@H](C(N)=O)[C@@H]5C=C[C@H]4C5)c(Br)cnc3[nH]2)cn1`, which melting point is on record?
A: 255 to 258 °C

Q: Which melting point does the source give for `Nc1ccccc1C(=O)c1ccccn1` here?
A: 145 to 146 °C

Q: For `CCOC(=O)NS(=O)(=O)c1ccc2c(c1)CCO2`, which melting point is on record?
A: 118 to 119 °C

Q: With `C[Si](C)(C)C#Cc1ccc(C=Cc2ccc(C#C[Si](C)(C)C)cc2)cc1` as the molecule, how does the melting point read?
A: 207 to 208 °C

Q: With `Cc1cc(N)nc(Br)c1` as the molecule, how does the melting point read?
A: 99 °C

Q: With `CCCCc1ccc(C(=O)O)c2ccccc12` as the molecule, how does the melting point read?
A: 136 to 137 °C

Q: For `O=C1Cc2cc3c(cc2C(c2ccc([N+](=O)[O-])cc2Cl)=NN1)OCO3`, which melting point is on record?
A: 202 to 204 °C

Q: With `CN(C)CC(O)c1cc(-c2ccccc2)on1` (centres undefined) as the molecule, how does the melting point read?
A: 117 to 119 °C

Q: For `CC(CCCC(O)(C(F)(F)F)C(F)(F)F)C1CCC2C3C=CC4=CC(=O)C5OC5C4(C)C3CCC12C` (centres undefined), which melting point is on record?
A: 181 to 184 °C

Q: With `Cc1ccccc1CN(O)C(=O)C(C)(C)CCl` as the molecule, how does the melting point read?
A: 112 to 113 °C

Q: For `Cc1cc(Nc2ccccc2)nc(-n2nc(C)cc2C)n1`, which melting point is on record?
A: 134 to 139 °C

Q: Which melting point does the source give for `COC(=O)c1ccc(-c2ccc(-c3ccc4c(c3)C(C)(C)CCC4(C)C)[nH]2)cc1` here?
A: 176 to 179 °C
